The subject of one assay is MCP-1. The experiment in a line: In vitro chemotaxis (trans-well migration) v MCP-1. The class given is cell-based, human. In a few lines: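 Human THP-1 monocytes (10^4-10^6) with agent at varying concentrations in upper trans-well chamber; IL-8 or MCP-1 in lower chamber at a migration-inducing concentration, 37° C for e.g. 4 hours. Migrated cells quantified by MTT (595 nm) against a THP-1 standard curve; cytotoxicity and non-chemokine chemoattractant controls run.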

Another assay concerns IL-8. Description: In vitro chemotaxis, inhibition v IL-8. The class given is cell-based, human. Details: concentration or dose not given beside the values. As for the experimental part:
To determine whether an agent inhibits a chemokine-induced activity, such as macrophage recruitment, varying amounts of the agent are mixed with cells in the presence of a known chemoattractant. For example, a range of known concentrations of an agent, e.g., a chemokine peptide, is incubated with a defined number (e.g., 10^4-10^6) of human THP-1 monocyte cells in individual wells of the top compartment of a trans-well plate. Chemokine, at a concentration known to cause significant migration of THP-1 cells in the trans-well migration assay, is placed in the lower compartment of a trans-well plate. Cells are then incubated at 37° C. for a period sufficient to allow migration, e.g., 4 hours. After incubation, the cells are gently removed from the top of the filter with a pipette, 20 μl of 20 mM EDTA in simple PBS is added into each top well, and incubated for 20 minutes at 4° C. The filter is carefully flushed with media using a gentle flow, and removed. A standard curve consisting of a two-fold dilution series of THP-1 cells (in 29 μl) is placed to accurately quantify the number of cells that have migrated. Migrated cells are stained with 3 μl of MTT stock dye solution which is added directly into each well (5 mg/ml in RPMI-1640 without phenol red) (Sigma Chemical Co., St. Louis, Mo., USA) and incubated at 37° C. for 4 hours. The media is carefully aspirated from each well, and the converted dye is solubilized by 20 μl of DMSO. Absorbance of converted dye is measured at a wavelength of 595 nm using an ELISA plate reader. The number of migrated cells in each well is then determined by interpolation of the standard curve (see also Imai et al., J. Biol. Chem., 272:15036, 1997). Any method suitable for counting cells can be used, for example, counting with a hemocytometer, incubation of the cells with MTT (see above), or FACS analysis. A negative control assay is also performed, using TGFβ or another non-chemokine chemoattractant (e.g., IL1β or TNFα). To assess whether the agent is cytotoxic, the same concentrations of agent are incubated with THP-1 cells. Agents which 1) are not cytotoxic at levels which inhibit migration, 2) are ineffective at inhibiting the negative control-induced migration, and 3) reduce or inhibit chemokine-induced THP-1 migration, are agents which fall within the scope of the invention.

Twelve compounds from US20110038885A1, “CHEMOKINE ANALOGS” (priority 2007, published 2011) can be followed below.

Molecules are shown by their SMILES. Bridge positions count the residues as written; N and C are the ends. Square brackets hold non-standard residues; d marks the D form. Peptide text beside a SMILES is read from it. AEEA = NCCOCCOCC(=O)O; Aoc = NCCCCCCCC(=O)O; GABA = NCCCC(=O)O

The compound `CC[C@H](C)[C@@H]1NC(=O)[C@H](Cc2c[nH]c3ccccc23)NC(=O)[C@H](CCCCN)NC(=O)[C@H](CCC(N)=O)NC(=O)[C@@H](NC(=O)[C@H](CCCCN)NC(=O)[C@@H]2CCCN2)CSSC[C@@H](C(N)=O)NC(=O)[C@H](CCC(N)=O)NC1=O` [Example 44, Pro-Lys-c(Cys-Gln-Lys-Trp-Ile-Gln-Cys)-NH2] (H-PKCQKWIQC-NH2; disulfide 3-9) registered a 50% effective concentration (EC50) in the assay with MCP-1 of 1000 nM. Further, in the assay with IL-8, the “v IL-8 inhibition (%)” value worked out at 12.9%.
Taken in the same sequence, the figures for `CC[C@H](C)[C@@H]1NC(=O)[C@H](Cc2c[nH]c3ccccc23)NC(=O)[C@H](CCCCN)NC(=O)[C@@H](NC(=O)[C@H](CCC(N)=O)NC(=O)[C@H](CCCCN)NC(=O)[C@@H]2CCCN2)CSSC[C@@H](C(N)=O)NC(=O)[C@H](CCC(N)=O)NC1=O` [Example 45, Pro-Lys-Gln-c(Cys-Lys-Trp-Ile-Gln-Cys)-NH2] (H-PKQCKWIQC-NH2; disulfide 4-9) were 150 nM and 74.2%.
Taken in the same sequence, the figures for `CC[C@H](C)[C@@H]1NC(=O)[C@H](Cc2c[nH]c3ccccc23)NC(=O)[C@H](CCCCN)NC(=O)[C@H](CCC(N)=O)NC(=O)[C@H](CCCCN)NC(=O)[C@@H]2CCCN2C(=O)[C@@H](N)CSSC[C@@H](C(N)=O)NC(=O)[C@H](CCC(N)=O)NC1=O` [Example 46, c(Cys-Pro-Lys-Gln-Lys-Trp-Ile-Gln-Cys)-NH2] (H-CPKQKWIQC-NH2; disulfide 1-9) were 150 nM and 52.4%.
The compound `CC[C@H](C)[C@@H]1NC(=O)[C@H](Cc2c[nH]c3ccccc23)NC(=O)[C@H](CCCCN)NC(=O)[C@H](CCC(N)=O)NC(=O)[C@@H](NC(=O)[C@@H](N)CCCCN)CSSC[C@@H](C(N)=O)NC(=O)[C@H](CCC(N)=O)NC1=O` [Example 47, Lys-c(Cys-Gln-Lys-Trp-Ile-Gln-Cys)-NH2] (H-KCQKWIQC-NH2; disulfide 2-8) showed an EC50 in the assay with MCP-1 of 20 nM. Besides, in the assay with IL-8, the “v IL-8 inhibition (%)” value is on record as 103.2%.
The like results for `CC[C@H](C)[C@@H]1NC(=O)[C@H](Cc2c[nH]c3ccccc23)NC(=O)[C@H](CCCCN)NC(=O)[C@H](CCC(N)=O)NC(=O)[C@H](CCCCN)NC(=O)[C@@H](N)CSSC[C@@H](C(N)=O)NC(=O)[C@H](CCC(N)=O)NC1=O` [Example 49, c(Cys-Lys-Gln-Lys-Trp-Ile-Gln-Cys)-NH2] (H-CKQKWIQC-NH2; disulfide 1-8) were, in that order, 100 nM and 72.6%.
The like results for `CC[C@H](C)[C@@H]1NC(=O)[C@H](Cc2c[nH]c3ccccc23)NC(=O)[C@H](CCCCN)NC(=O)[C@H](CCC(N)=O)NC(=O)[C@@H](N)CSSC[C@@H](C(N)=O)NC(=O)[C@H](CCC(N)=O)NC1=O` [Example 50, c(Cys-Gln-Lys-Trp-Ile-Gln-Cys)-NH2] (H-CQKWIQC-NH2; disulfide 1-7) were, in that order, 25 nM and 104.8%.
Compound `CC[C@H](C)[C@@H]1NC(=O)[C@H](Cc2c[nH]c3ccccc23)NC(=O)[C@@H](NC(=O)[C@@H](N)CCCCN)CSSC[C@@H](C(N)=O)NC(=O)[C@H](CCC(N)=O)NC1=O` [Example 51, Lys-c(Cys-Trp-Ile-Gln-Cys)-NH2] (H-KCWIQC-NH2; disulfide 2-6) registered a concentration for a half-maximal effect (EC50) in the assay with MCP-1 of 80 nM. In addition, the “v IL-8 inhibition (%)” value in the assay on IL-8 was 115.9%.
The like results for `CC[C@@H](C)[C@H]1NC(=O)[C@@H](CCC(N)=O)NC(=O)[C@H](N)CSSC[C@H](C(=O)NCCOCCOCC(=O)NCCCCCCCC(=O)O)NC(=O)[C@@H](CC(C)C)NC(=O)[C@@H](CC(=O)O)NC(=O)[C@H]2CCCN2C(=O)[C@@H](CCCCN)NC(=O)[C@@H](CCC(N)=O)NC(=O)[C@@H](CCCCN)NC(=O)[C@@H](Cc2c[nH]c3ccccc23)NC1=O` [Example 138, c(D-Cys-D-Gln-D-Ile-D-Trp-D-Lys-D-Gln-D-Lys-D-Pro-D-Asp-D-Leu-D-Cys)-Doc-Aoc-OH] (H-[dC][dQ][dI][dW][dK][dQ][dK][dP][dD][dL][dC][AEEA][Aoc]-OH; disulfide 1-11) were, in that order, 20 nM and 98.4%.
For the compound `CC[C@@H](C)[C@H]1NC(=O)[C@@H](CCC(N)=O)NC(=O)[C@H](N)CSSC[C@H](C(=O)NCCCCCCCC(=O)O)NC(=O)[C@@H](CC(C)C)NC(=O)[C@@H](CC(=O)O)NC(=O)[C@H]2CCCN2C(=O)[C@@H](CCCCN)NC(=O)[C@@H](CCC(N)=O)NC(=O)[C@@H](CCCCN)NC(=O)[C@@H](Cc2c[nH]c3ccccc23)NC1=O` [Example 139, c(D-Cys-D-Gln-D-Ile-D-Trp-D-Lys-D-Gln-D-Lys-D-Pro-D-Asp-D-Leu-D-Cys)-Aoc-OH] (H-[dC][dQ][dI][dW][dK][dQ][dK][dP][dD][dL][dC][Aoc]-OH; disulfide 1-11), the 50% effective concentration (EC50) in the assay on MCP-1 came out at 100 nM. The “v IL-8 inhibition (%)” value with IL-8 is listed as 47.0%.
For `CC[C@@H](C)[C@H]1NC(=O)[C@@H](CCC(N)=O)NC(=O)[C@H](N)CSSC[C@H](C(=O)N[C@H](C(=O)N[C@@H](CCC(=O)O)C(=O)NCCCCCCCC(=O)O)[C@@H](C)CC)NC(=O)[C@@H](CC(C)C)NC(=O)[C@@H](CC(=O)O)NC(=O)[C@H]2CCCN2C(=O)[C@@H](CCCCN)NC(=O)[C@@H](CCC(N)=O)NC(=O)[C@@H](CCCCN)NC(=O)[C@@H](Cc2c[nH]c3ccccc23)NC1=O` [Example 140, c(D-Cys-D-Gln-D-Ile-D-Trp-D-Lys-D-Gln-D-Lys-D-Pro-D-Asp-D-Leu-D-Cys)-Ile-Glu-Aoc-OH] (H-[dC][dQ][dI][dW][dK][dQ][dK][dP][dD][dL][dC]IE[Aoc]-OH; disulfide 1-11), the concentration giving a half-maximal response (EC50) in the assay on MCP-1 was 400 nM. Further, the “v IL-8 inhibition (%)” value in the assay on IL-8 is on record as 43.4%.
The like results for `CC[C@@H](C)[C@H]1NC(=O)[C@@H](CCC(N)=O)NC(=O)[C@H](N)CSSC[C@H](C(=O)N[C@@H](C(=O)N[C@H](CCC(=O)O)C(=O)NCCCCCCCC(=O)O)C(C)C)NC(=O)[C@@H](CC(C)C)NC(=O)[C@@H](CC(=O)O)NC(=O)[C@H]2CCCN2C(=O)[C@@H](CCCCN)NC(=O)[C@@H](CCC(N)=O)NC(=O)[C@@H](CCCCN)NC(=O)[C@@H](Cc2c[nH]c3ccccc23)NC1=O` [Example 141, c(D-Cys-D-Gln-D-Ile-D-Trp-D-Lys-D-Gln-D-Lys-D-Pro-D-Asp-D-Leu-D-Cys)-D-Val-D-Glu-Aoc-OH] (H-[dC][dQ][dI][dW][dK][dQ][dK][dP][dD][dL][dC][dV][dE][Aoc]-OH; disulfide 1-11) were, in that order, 330 nM and 27.5%.
For `CC[C@@H](C)[C@H]1NC(=O)[C@@H](CCC(N)=O)NC(=O)[C@H](N)CSSC[C@H](C(=O)NCCCC(=O)O)NC(=O)[C@@H](CC(C)C)NC(=O)[C@@H](CC(=O)O)NC(=O)[C@H]2CCCN2C(=O)[C@@H](CCCCN)NC(=O)[C@@H](CCC(N)=O)NC(=O)[C@@H](CCCCN)NC(=O)[C@@H](Cc2c[nH]c3ccccc23)NC1=O` [Example 142, c(D-Cys-D-Gln-D-Ile-D-Trp-D-Lys-D-Gln-D-Lys-D-Pro-D-Asp-D-Leu-D-Cys)-Gaba-OH] (H-[dC][dQ][dI][dW][dK][dQ][dK][dP][dD][dL][dC][GABA]-OH; disulfide 1-11), a half-maximal effect in the assay with MCP-1 (EC50) was put at 20 nM. Further, in the assay with IL-8, the “v IL-8 inhibition (%)” value was determined as 107.3%.

The term EC50 denotes the concentration giving half of the maximal effect.
